Experiments:
GSPT1 = test: Western blot, degradation of substrate protein in hPBMCs; assay type: cell-based, Human
[1] = target: T1, human Cereblon WT GST-tagged protein (Homo sapiens, UniProt Q96SW2); test: CRBN-binding affinity, HTRF (CEREBLON BINDING kit); details: for inhibition at 0.5 µM: read-out: Inhibition Rate at 0.5 µM (%); for inhibition at 2 µM: read-out: Inhibition Rate at 2 µM (%)
T1 construct: purchased CISBIO 64BDCRBNPEH

IKZF1 = target: T2, IKZF1 (Homo sapiens, UniProt Q13422+Q96SW2); test: Western blot, degradation of substrate protein in hPBMCs; assay type: cell-based
T2 construct: effects of the compounds of the present disclosure on the expression of target proteins in cells; endogenous in cells; host or cells: human PBMCs (Milecell Biotechnologies)

IKZF2 = target: T3, IKZF2 (Homo sapiens, UniProt Q96SW2+Q9UKS7); test: as above; assay type: cell-based
T3 construct: effects of the compounds of the present disclosure on the expression of target proteins in cells; endogenous in cells; host or cells: human PBMCs (Milecell Biotechnologies)

WEE1 = target: T4, WEE1 (Homo sapiens, UniProt P30291+Q96SW2); test: as above; assay type: cell-based
T4 construct: effects of the compounds of the present disclosure on the expression of target proteins in cells; endogenous in cells; host or cells: human PBMCs (Milecell Biotechnologies)

CK1α = target: T5, CK1α (Homo sapiens, UniProt P48729+Q96SW2); test: as above; assay type: cell-based
T5 construct: effects of the compounds of the present disclosure on the expression of target proteins in cells; endogenous in cells; host or cells: human PBMCs (Milecell Biotechnologies)

IKZF3 = target: T6, IKZF3 (Homo sapiens, UniProt Q96SW2+Q9UKT9); test: as above; assay type: cell-based
T6 construct: effects of the compounds of the present disclosure on the expression of target proteins in cells; endogenous in cells; host or cells: human PBMCs (Milecell Biotechnologies)

[2] = Western blot, 24 hours of compound treatment, compounds tested at 50 nM and 500 nM (concentration for the table not stated)
[3] = 24 hours treatment, compounds at 50 nM and 500 nM (concentration behind the class not stated)

T1 sequence (Q96SW2 whole entry): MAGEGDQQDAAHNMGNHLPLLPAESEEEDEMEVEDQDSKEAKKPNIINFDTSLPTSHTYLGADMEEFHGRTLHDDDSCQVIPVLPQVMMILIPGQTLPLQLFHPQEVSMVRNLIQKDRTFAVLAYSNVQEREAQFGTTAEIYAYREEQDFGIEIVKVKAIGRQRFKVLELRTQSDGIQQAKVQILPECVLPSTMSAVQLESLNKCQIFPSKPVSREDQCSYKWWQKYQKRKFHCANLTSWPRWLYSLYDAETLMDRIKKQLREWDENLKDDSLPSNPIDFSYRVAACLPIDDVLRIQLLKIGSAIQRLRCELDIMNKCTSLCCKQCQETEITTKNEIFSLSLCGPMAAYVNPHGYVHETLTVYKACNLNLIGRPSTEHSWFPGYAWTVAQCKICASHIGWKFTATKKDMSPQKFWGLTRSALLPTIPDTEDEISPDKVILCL
T2 sequence (Q13422 whole entry): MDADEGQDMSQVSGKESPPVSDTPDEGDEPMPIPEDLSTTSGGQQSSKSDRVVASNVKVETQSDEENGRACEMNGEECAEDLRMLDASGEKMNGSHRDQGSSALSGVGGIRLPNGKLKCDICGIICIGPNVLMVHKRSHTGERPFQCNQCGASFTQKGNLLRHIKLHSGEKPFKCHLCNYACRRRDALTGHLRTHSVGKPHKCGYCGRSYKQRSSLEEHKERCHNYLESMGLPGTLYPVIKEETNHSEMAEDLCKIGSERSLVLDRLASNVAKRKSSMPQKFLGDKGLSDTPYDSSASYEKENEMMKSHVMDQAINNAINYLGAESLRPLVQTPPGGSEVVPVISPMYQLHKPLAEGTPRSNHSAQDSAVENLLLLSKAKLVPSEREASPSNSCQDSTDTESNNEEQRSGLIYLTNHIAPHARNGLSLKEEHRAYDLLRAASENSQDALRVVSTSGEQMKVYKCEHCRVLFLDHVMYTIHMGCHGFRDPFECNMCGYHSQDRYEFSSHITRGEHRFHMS
T2 sequence (Q96SW2 whole entry): as the sequence (Q96SW2 whole entry) above
T2 sequence (Q16531 whole entry partner): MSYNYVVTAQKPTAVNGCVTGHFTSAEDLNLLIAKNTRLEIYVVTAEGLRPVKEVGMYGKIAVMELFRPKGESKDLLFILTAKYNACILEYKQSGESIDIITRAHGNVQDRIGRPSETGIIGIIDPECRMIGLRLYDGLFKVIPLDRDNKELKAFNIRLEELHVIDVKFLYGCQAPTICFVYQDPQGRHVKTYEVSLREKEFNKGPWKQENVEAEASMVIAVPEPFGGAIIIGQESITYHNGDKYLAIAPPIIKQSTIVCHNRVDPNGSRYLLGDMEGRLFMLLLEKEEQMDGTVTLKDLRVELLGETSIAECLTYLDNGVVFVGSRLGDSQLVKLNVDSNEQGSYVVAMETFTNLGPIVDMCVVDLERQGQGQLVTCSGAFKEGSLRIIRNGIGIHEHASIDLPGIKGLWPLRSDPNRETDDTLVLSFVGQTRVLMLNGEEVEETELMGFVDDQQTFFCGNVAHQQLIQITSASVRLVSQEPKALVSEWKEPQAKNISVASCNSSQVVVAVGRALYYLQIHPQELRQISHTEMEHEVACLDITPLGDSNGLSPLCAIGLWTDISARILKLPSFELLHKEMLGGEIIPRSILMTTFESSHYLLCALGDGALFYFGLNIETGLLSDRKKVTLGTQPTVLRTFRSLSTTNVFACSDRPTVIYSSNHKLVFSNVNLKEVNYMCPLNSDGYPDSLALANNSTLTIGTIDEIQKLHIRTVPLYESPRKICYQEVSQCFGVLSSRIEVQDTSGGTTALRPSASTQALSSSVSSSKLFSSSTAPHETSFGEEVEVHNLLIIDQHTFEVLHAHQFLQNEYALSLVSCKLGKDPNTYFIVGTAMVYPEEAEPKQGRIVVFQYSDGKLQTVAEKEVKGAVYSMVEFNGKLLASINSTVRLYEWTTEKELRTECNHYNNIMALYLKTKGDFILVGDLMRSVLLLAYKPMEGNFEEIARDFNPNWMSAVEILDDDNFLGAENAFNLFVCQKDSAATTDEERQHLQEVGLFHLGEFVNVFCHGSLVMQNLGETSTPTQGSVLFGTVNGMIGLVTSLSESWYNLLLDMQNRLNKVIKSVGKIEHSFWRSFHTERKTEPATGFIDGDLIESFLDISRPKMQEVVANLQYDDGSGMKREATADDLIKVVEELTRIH
T5 sequence (P48729 whole entry): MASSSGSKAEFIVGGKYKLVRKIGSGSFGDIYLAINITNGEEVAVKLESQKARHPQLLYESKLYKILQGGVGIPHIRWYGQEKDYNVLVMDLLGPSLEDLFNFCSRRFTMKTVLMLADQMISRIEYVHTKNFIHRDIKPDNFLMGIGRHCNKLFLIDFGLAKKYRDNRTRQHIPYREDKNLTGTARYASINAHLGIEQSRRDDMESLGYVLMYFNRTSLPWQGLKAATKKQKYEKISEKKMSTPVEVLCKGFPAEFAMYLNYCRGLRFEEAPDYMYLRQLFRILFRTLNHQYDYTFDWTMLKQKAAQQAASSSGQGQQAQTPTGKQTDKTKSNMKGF
T5 sequence (Q96SW2 whole entry): as the sequence (Q96SW2 whole entry) above
T5 sequence (Q16531 whole entry partner): as the sequence (Q16531 whole entry partner) above
T6 sequence (Q9UKT9 whole entry): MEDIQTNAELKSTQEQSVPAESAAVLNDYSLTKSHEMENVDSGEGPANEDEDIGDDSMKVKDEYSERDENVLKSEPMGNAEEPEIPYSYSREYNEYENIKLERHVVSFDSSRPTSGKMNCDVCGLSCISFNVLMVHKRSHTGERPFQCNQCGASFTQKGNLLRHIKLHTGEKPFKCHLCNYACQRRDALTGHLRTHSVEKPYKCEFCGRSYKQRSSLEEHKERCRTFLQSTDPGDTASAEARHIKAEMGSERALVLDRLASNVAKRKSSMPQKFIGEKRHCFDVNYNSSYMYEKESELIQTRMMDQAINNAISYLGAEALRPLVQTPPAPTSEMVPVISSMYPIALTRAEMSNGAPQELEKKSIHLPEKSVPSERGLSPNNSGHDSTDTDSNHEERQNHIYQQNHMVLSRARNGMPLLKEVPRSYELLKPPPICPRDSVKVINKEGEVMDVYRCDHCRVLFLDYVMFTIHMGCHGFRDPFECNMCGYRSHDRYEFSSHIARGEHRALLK
T6 sequence (Q96SW2 whole entry): as the sequence (Q96SW2 whole entry) above
T6 sequence (Q16531 whole entry partner): as the sequence (Q16531 whole entry partner) above
T3 sequence (Q9UKS7 whole entry): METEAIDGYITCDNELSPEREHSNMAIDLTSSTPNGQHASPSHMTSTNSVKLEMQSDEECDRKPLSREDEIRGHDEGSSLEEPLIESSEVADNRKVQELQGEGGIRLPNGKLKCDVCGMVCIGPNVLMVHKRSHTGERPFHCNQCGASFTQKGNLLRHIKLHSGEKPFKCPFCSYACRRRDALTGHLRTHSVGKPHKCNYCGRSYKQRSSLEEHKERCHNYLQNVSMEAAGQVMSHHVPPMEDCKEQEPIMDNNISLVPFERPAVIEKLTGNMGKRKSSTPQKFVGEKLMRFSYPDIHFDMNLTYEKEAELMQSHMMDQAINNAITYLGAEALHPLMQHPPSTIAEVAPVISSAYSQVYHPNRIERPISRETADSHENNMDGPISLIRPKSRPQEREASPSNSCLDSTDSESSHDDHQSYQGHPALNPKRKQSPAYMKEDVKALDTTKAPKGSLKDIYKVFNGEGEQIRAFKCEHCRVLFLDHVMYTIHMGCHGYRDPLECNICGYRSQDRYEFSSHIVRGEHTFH
T3 sequence (Q96SW2 whole entry): as the sequence (Q96SW2 whole entry) above
T3 sequence (Q16531 whole entry partner): as the sequence (Q16531 whole entry partner) above
T4 sequence (P30291 whole entry): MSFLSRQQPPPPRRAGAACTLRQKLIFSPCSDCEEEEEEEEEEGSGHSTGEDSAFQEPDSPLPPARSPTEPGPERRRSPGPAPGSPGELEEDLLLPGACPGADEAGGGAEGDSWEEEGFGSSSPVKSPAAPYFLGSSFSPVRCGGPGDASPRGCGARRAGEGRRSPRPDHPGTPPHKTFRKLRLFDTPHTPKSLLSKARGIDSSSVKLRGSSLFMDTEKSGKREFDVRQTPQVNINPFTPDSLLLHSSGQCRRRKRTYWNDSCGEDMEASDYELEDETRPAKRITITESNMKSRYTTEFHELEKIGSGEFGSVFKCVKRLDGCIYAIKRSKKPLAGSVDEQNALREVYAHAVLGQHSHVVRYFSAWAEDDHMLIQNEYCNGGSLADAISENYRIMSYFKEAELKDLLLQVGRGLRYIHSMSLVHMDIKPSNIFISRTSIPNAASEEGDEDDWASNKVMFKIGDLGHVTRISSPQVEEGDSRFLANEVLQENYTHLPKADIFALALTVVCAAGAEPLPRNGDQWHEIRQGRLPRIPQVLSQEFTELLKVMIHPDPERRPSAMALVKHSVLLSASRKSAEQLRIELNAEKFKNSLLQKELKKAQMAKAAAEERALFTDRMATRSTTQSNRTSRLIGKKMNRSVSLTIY
T4 sequence (Q96SW2 whole entry): as the sequence (Q96SW2 whole entry) above
T4 sequence (Q16531 whole entry partner): as the sequence (Q16531 whole entry partner) above

| Structure (SMILES) | GSPT1 substrate protein remaining % (GSPT1; [2]) | inhibition at 0.5 µM [1] [%] | inhibition at 2 µM [1] [%] | IKZF 1 substrate protein remaining % (IKZF1; [2]) | IKZF2 substrate protein remaining % (IKZF2; [2]) | Wee1 substrate protein remaining % (WEE1; [2]) | CK1α substrate protein remaining % (CK1α; [2]) | IKZF3 substrate protein remaining % (IKZF3; [2]) | GSPT1 substrate protein remaining % (GSPT1; [3]) | IKZF 1 substrate protein remaining % (IKZF1; [3]) | IKZF2 substrate protein remaining % (IKZF2; [3]) | Wee1 substrate protein remaining % (WEE1; [3]) | CK1α substrate protein remaining % (CK1α; [3]) | IKZF3 substrate protein remaining % (IKZF3; [3]) |
| --- | --- | --- | --- | --- | --- | --- | --- | --- | --- | --- | --- | --- | --- | --- |
| O=C1CCC(N2Cc3c(CN4CCN(c5ccc(F)cc5)CC4)cccc3C2=S)C(=O)N1 (centres unmarked) [GT-08264, 3-(4-((4-(4-fluorophenyl)piperazin-1-yl)methyl)-1-thioxoisoindolin-2-yl)piperidine-2,6-dione] | A (0% ≤ substrate protein remaining % ≤ 80%) | 40 to 53 | 80 to 100 | B (80%< substrate protein remaining %≤ 100%) | B (80%< substrate protein remaining %≤ 100%) | A (0% ≤ substrate protein remaining % ≤ 80%) | A (0% ≤ substrate protein remaining % ≤ 80%) | A (0% ≤ substrate protein remaining % ≤ 80%) | – | – | – | – | – | – |
| O=C1CCC(N2Cc3c(CN4CCN(c5ccccc5Cl)CC4)cccc3C2=S)C(=O)N1 (centres unmarked) [GT-08265, 3-(4-((4-(2-chlorophenyl)piperazin-1-yl)methyl)-1-thioxoisoindolin-2-yl)piperidine-2,6-dione] | A (0% ≤ substrate protein remaining % ≤ 80%) | 40 to 53 | 53 to 60 | B (80%< substrate protein remaining %≤ 100%) | B (80%< substrate protein remaining %≤ 100%) | A (0% ≤ substrate protein remaining % ≤ 80%) | B (80%< substrate protein remaining %≤ 100%) | B (80%< substrate protein remaining %≤ 100%) | – | – | – | – | – | – |
| O=C1CCC(N2Cc3c(CN4CCC(c5cccc(Cl)c5Cl)CC4)cccc3C2=S)C(=O)N1 (centres unmarked) [GT-08269, 3-(4-((4-(2,3-dichlorophenyl)piperidin-1-yl)methyl)-1-thioxoisoindolin-2-yl)piperidine-2,6-dione] | A (0% ≤ substrate protein remaining % ≤ 80%) | 30 to 40 | 53 to 60 | B (80%< substrate protein remaining %≤ 100%) | B (80%< substrate protein remaining %≤ 100%) | A (0% ≤ substrate protein remaining % ≤ 80%) | B (80%< substrate protein remaining %≤ 100%) | B (80%< substrate protein remaining %≤ 100%) | – | – | – | – | – | – |
| CC1(C)CCC(CN2C3CC2CN(Cc2cccc4c2CN(C2CCC(=O)NC2=O)C4=S)C3)=C(c2ccc(Cl)cc2)C1 (centres unmarked) [GT-08271, 3-(4-((6-((4'-chloro-5,5-dimethyl-3,4,5,6-tetrahydro-[1,1'-biphenyl]-2-yl)methyl)-3,6-diazabicyclo[3.1.1]heptan-3-yl)methyl)-1-thioxoisoindolin-2-yl)piperidine-2,6-dione] | A (0% ≤ substrate protein remaining % ≤ 80%) | 30 to 40 | 60 to 80 | B (80%< substrate protein remaining %≤ 100%) | B (80%< substrate protein remaining %≤ 100%) | A (0% ≤ substrate protein remaining % ≤ 80%) | A (0% ≤ substrate protein remaining % ≤ 80%) | B (80%< substrate protein remaining %≤ 100%) | – | – | – | – | – | – |
| CC1(C)CCC(CN2C3CCC2CN(Cc2cccc4c2CN(C2CCC(=O)NC2=O)C4=S)C3)=C(c2ccc(Cl)cc2)C1 (centres unmarked) [GT-08291, 3-(4-((8-((4'-chloro-5,5-dimethyl-3,4,5,6-tetrahydro-[1,1-biphenyl]-2-yl)methyl)-3,8-diazabicyclo[3.2.1]octan-3-yl)methyl)-1-thioxoisoindolin-2-yl)piperidine-2,6-dione] | A (0% ≤ substrate protein remaining % ≤ 80%) | 20 to 30 | 60 to 80 | B (80%< substrate protein remaining %≤ 100%) | B (80%< substrate protein remaining %≤ 100%) | A (0% ≤ substrate protein remaining % ≤ 80%) | A (0% ≤ substrate protein remaining % ≤ 80%) | B (80%< substrate protein remaining %≤ 100%) | – | – | – | – | – | – |
| Cc1cc(N2CCN(Cc3cccc4c3CN(C3CCC(=O)NC3=O)C4=S)CC2)cs1 (centres unmarked) [GT-08298, 3-(4-((4-(5-methylthiophen-3-yl)piperazin-1-yl)methyl)-1-thioxoisoindolin-2-yl)piperidine-2,6-dione] | B (80%< substrate protein remaining %≤ 100%) | 60 to 80 | 80 to 100 | B (80%< substrate protein remaining %≤ 100%) | B (80%< substrate protein remaining %≤ 100%) | A (0% ≤ substrate protein remaining % ≤ 80%) | B (80%< substrate protein remaining %≤ 100%) | B (80%< substrate protein remaining %≤ 100%) | – | – | – | – | – | – |
| O=C1CCC(N2Cc3c(CN4CC=C(c5ccsc5)CC4)cccc3C2=S)C(=O)N1 (centres unmarked) [GT-08300, 3-(4-((4-(thiophen-3-yl)-3,6-dihydropyridin-1(2H)-yl)methyl)-1-thioxoisoindolin-2-yl)piperidine-2,6-dione] | B (80%< substrate protein remaining %≤ 100%) | 40 to 53 | 60 to 80 | B (80%< substrate protein remaining %≤ 100%) | A (0% ≤ substrate protein remaining % ≤ 80%) | B (80%< substrate protein remaining %≤ 100%) | B (80%< substrate protein remaining %≤ 100%) | B (80%< substrate protein remaining %≤ 100%) | – | – | – | – | – | – |
| CC1(C)CCC(CN2CC3CCC2CN3Cc2cccc3c2CN(C2CCC(=O)NC2=O)C3=S)=C(c2ccc(Cl)cc2)C1 (centres unmarked) [GT-08302, 3-(4-((5-((4'-chloro-5,5-dimethyl-3,4,5,6-tetrahydro-[1,1'-biphenyl]-2-yl)methyl)-2,5-diazabicyclo[2.2.2]octan-2-yl)methyl)-1-thioxoisoindolin-2-yl)piperidine-2,6-dione] | B (80%< substrate protein remaining %≤ 100%) | 30 to 40 | 80 to 100 | B (80%< substrate protein remaining %≤ 100%) | B (80%< substrate protein remaining %≤ 100%) | A (0% ≤ substrate protein remaining % ≤ 80%) | B (80%< substrate protein remaining %≤ 100%) | B (80%< substrate protein remaining %≤ 100%) | – | – | – | – | – | – |
| COc1cccc(N2CCN(Cc3cccc4c3CN(C3CCC(=O)NC3=O)C4=S)CC2)c1 (centres unmarked) [GT-08304, 3-(4-((4-(3-methoxyphenyl)piperazin-1-yl)methyl)-1-thioxoisoindolin-2-yl)piperidine-2,6-dione] | B (80%< substrate protein remaining %≤ 100%) | 60 to 80 | 60 to 80 | A (0% ≤ substrate protein remaining % ≤ 80%) | B (80%< substrate protein remaining %≤ 100%) | A (0% ≤ substrate protein remaining % ≤ 80%) | B (80%< substrate protein remaining %≤ 100%) | B (80%< substrate protein remaining %≤ 100%) | – | – | – | – | – | – |
| Cc1ccc(N2CCN(Cc3cccc4c3CN(C3CCC(=O)NC3=O)C4=S)CC2)s1 (centres unmarked) [GT-08305, 3-(4-((4-(5-methylthiophen-2-yl)piperazin-1-yl)methyl)-1-thioxoisoindolin-2-yl)piperidine-2,6-dione] | – | 60 to 80 | 80 to 100 | – | – | – | – | – | B (80%< substrate protein remaining %≤ 100%) | B (80%< substrate protein remaining %≤ 100%) | A (0% ≤ substrate protein remaining % ≤ 80%) | B (80%< substrate protein remaining %≤ 100%) | B (80%< substrate protein remaining %≤ 100%) | B (80%< substrate protein remaining %≤ 100%) |
